The record followed here is patent publication US11672799B2, “1,4-disubstituted pyridazine quinolne analogs there of and methods for treating SMN-deficiency-related conditions” (Novartis AG, priority 2013, dated 2023).

Read-outs that look alike come from different tables or passages of the source.

The subject of one assay is SMN2 Full reporter. Nature of the assay: SMN2 Full reporter gene assay (luciferase) in NSC34 stable line. The note with it: NSC-34, Biological Example 2, 24 hours, BrightGlo, read-out: SMN Activity (EC50). The assay is classed as cell-based. The source says: SMN2 Full Reporter Construct:
pSMN2 Splicing Luciferase reporter was constructed according to Zhang et al., (An in vivo reporter system for measuring increased inclusion of exon 7 in SMN2 mRNA: potential therapy of SMA. Gene Ther. 2001 October; 8(20):1532-8) via overlapping PCR. The final PCR fragment containing Exon6-Intron6-Exon7 (with a C insertion before 49T)-Intron7-Exon8-Luciferase was inserted to BamHI and NotI site of pCAG-IRESblast expression vector (Chen et al., Establishment and Maintenance of Genomic Methylation Patterns in Mouse Embryonic Stem Cells by Dnmt3a and Dnmt3b. Mol Cell Biol. 2003 August; 23(16):5594-605).
Human SMN2 exon1-exon6 cDNA were amplified by PCR (Forward primer: […]; reverse primer: […]), and Exon6-Intron6 (Forward primer: […]; reverse primer: […]) were fused by overlap PCR to create Exon1-Intron6 fragment, and was inserted into pSMN2 splicing Luciferase reporter via BamHI and HindIII sites to create pSMN2 exon1-6 splicing reporter. SMN2 promoter 5.1 kb fragment was amplified from human genomic DNA by PCR (Forward primer: […]; reverse primer: […]), and inserted between MluI site and BamHI site (Blunted using DNA blunting kit, Takara, Cat #6025) of pSMN2 exon1-6 splicing reporter to replace chicken β-actin promoter and the human cytomegalovirus immediate early enhancer, to finalize the pSMN2-Full-reporter.
SMN2 Full Reporter Stable Clone in NSC34 Cells:
pSMN2-Full reporter was stably transfected into NSC34 cells using Lipofectamine 2000, which were subsequently selected in blasticidin-containing medium for two weeks. Blasticidin-resistant colonies were screened by Luciferase signal and response to SAHA as well as by RT-PCR for alternative splicing of Exon7.
NSC34 SMN2 Full reporter stable line was cultured in DMEM (Invitrogen, Cat:11965)+10% FBS+7 μg/ml Blasticidin. Cells in culture media without Blasticidin were seeded into a 384-well plate at a density of 6000 cells/well and treated with compounds for 24 hours. Luciferase signal was assessed by BrightGlo assay. Eequal volume of BrightGlo reagent (Promega, Cat #E2620) was added to the cells and incubated for 10 minutes at room temperature. Luminescent signal was read in either BioTek or Envision plate reader.
Reporter gene assay conditions: compound concentration range 3 nM-10 uM.
On the technique in general: In a reporter assay the amount or activity of a reporter protein is the signal.

In a further assay the test system is SMN protein. Nature of the assay: cellular SMN ELISA (SMN protein elevation) in myoblast cell line from SMNdelta7 mouse model. It counts as cell-based. An outline of the steps:
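SMNdelta7 mouse myoblasts were treated with compounds for 24 h (20 nM–10 uM or 100 pM–10 uM), lysed in modified RIPA buffer, and SMN quantified by sandwich ELISA with HRP/TMB read at 450 nm. Values are fold activation over DMSO control and EC50.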
On the technique in general: ELISA stands for enzyme-linked immunosorbent assay.

The mark [1] stands for this setting: Biological Example 1, SMN ELISA, SMNdelta7 mouse myoblasts, 24 hours compound treatment.
Setting [2] is: Biological Example 1, SMN ELISA, SMNdelta7 mouse myoblasts, 24 hours compound treatment, read-out: SMN Activity (EC50).

As a reminder, the EC50 is the midpoint of the concentration-response curve. On to `CN(c1ccc(-c2cc3cnc(C4CC4)cc3cc2O)nn1)C1CC(C)(C)NC(C)(C)C1` [Example 36-3, 3-cyclopropyl-7-(6-(methyl(2,2,6,6-tetramethyl-piperidin-4-yl)amino)pyridazin-3-yl)isoquinolin-6-ol], for which, in the assay with SMN2 Full reporter, the EC50 was 30 nM.
The same measure, in the same setting: the value for `CC(C)c1cc2cc(O)c(-c3ccc(OC4CC(C)(C)NC(C)(C)C4)nn3)cc2cn1` [Example 36-6, 3-isopropyl-7-(6-((2,2,6,6-tetramethylpiperidin-4-yl)oxy)-pyridazin-3-yl)isoquinolin-6-ol] was 640 nM; that for `CC(C)c1cc2cc(O)c(-c3ccc(N(C)C4CC(C)(C)NC(C)(C)C4)nn3)cc2cn1` [Example 36-4, 3-isopropyl-7-(6-(methyl(2,2,6,6-tetramethyl-piperidin-4-yl)amino)pyridazin-3-yl)isoquinolin-6-ol] was 190 nM; that for `CN(c1ccc(-c2cc3[nH]c(=O)oc3cc2O)nn1)C1CC(C)(C)NC(C)(C)C1` [Example 33-1, 6-hydroxy-5-(6-(methyl(2,2,6,6-tetramethylpiperidin-4-yl)amino)pyridazin-3-yl)benzo[d]oxazol-2(3H)-one] was 3000 nM.
As to `CN(c1ccc(-c2cc3c(=O)n(C)c(=O)n(C)c3cc2O)nn1)C1CC(C)(C)NC(C)(C)C1` [Example 32-1, 7-hydroxy-1,3-dimethyl-6-(6-(methyl(2,2,6,6-tetramethylpiperidin-4-yl)amino)pyridazin-3-yl)quinazoline-2,4(1H,3H)-dione], the EC50 in the assay with SMN2 Full reporter stood at 133 nM.
Same read-out and setting: the value for `Cc1cc2cc(-c3ccc(N(C)C4CC(C)(C)NC(C)(C)C4)nn3)c(O)cc2c(C#N)n1` [Example 30-1, 7-hydroxy-3-methyl-6-(6-(methyl(2,2,6,6-tetramethylpiperidin-4-yl)amino)pyridazin-3-yl)isoquinoline-1-carbonitrile] was 30 nM; that for `CCn1ccc2cc(O)c(-c3ccc(OC4CC(C)(C)NC(C)(C)C4)nn3)cc2c1=O` [Example 35-2, 2-ethyl-6-hydroxy-7-(6-((2,2,6,6-tetramethylpiperidin-4-yl)oxy)pyridazin-3-yl)isoquinolin-1(2H)-one] was 363 nM.
Same read-out and setting: the value for `CN(c1ccc(-c2cc3c(N)nccc3cc2O)nn1)C1CC(C)(C)NC(C)(C)C1` [Example 31-1, 1-amino-7-(6-(methyl(2,2,6,6-tetramethylpiperidin-4-yl)amino)pyridazin-3-yl)isoquinolin-6-ol] was 25 nM.
Consider `CN(c1ccc(-c2cc3cnn(C)c3cc2O)nn1)C1CC(C)(C)NC(C)(C)C1` [Example 34-2, 1-methyl-5-(6-(methyl(2,2,6,6-tetramethylpiperidin-4-yl)amino)pyridazin-3-yl)-1H-indazol-6-ol], for which the EC50 in the assay on SMN2 Full reporter was 220 nM.
Regarding `CN(c1ccc(-c2cc3cn(C)nc3cc2O)nn1)C1CC(C)(C)NC(C)(C)C1` [Example 34-1, 2-methyl-5-(6-(methyl(2,2,6,6-tetramethylpiperidin-4-yl)amino)pyridazin-3-yl)-2H-indazol-6-ol], the EC50 with SMN2 Full reporter is 150 nM.
On to `Cc1ccc2cc(-c3ccc(N(C)C4CC(C)(C)NC(C)(C)C4)nn3)c(O)cc2n1` [Example 2-1, 2-methyl-6-(6-(methyl(2,2,6,6-tetramethylpiperidin-4-yl)amino)pyridazin-3-yl)quinolin-7-ol], for which, in the assay with SMN protein (setting [1]), the “SMN Activity (fold activation over DMSO control)” value is given as 3.0 fold. Besides, in the assay on SMN protein (setting [2]), the EC50 worked out at 20 nM.
For `CN(c1ccc(-c2cc3cc(O)cnc3cc2O)nn1)C1CC(C)(C)NC(C)(C)C1` [Example 7-6, 6-(6-(methyl(2,2,6,6-tetramethylpiperidin-4-yl)amino)pyridazin-3-yl)quinoline-3,7-diol] the same measures were 2.9 fold and 300 nM.
For `CN(c1ccc(-c2cc3c(cc2O)c(=O)ccn3C)nn1)C1CC(C)(C)NC(C)(C)C1` [Example 17-1, 6-hydroxy-1-methyl-7-(6-(methyl(2,2,6,6-tetramethylpiperidin-4-yl)amino)pyridazin-3-yl)quinolin-4(1H)-one] the same measures were 2.56 fold and 685 nM.
Take `CN(c1ccc(-c2cc3ccncc3cc2O)nn1)C1CC(C)(C)NC(C)(C)C1` [Example 4-1, 6-(6-(methyl(2,2,6,6-tetramethylpiperidin-4-yl)amino)pyridazin-3-yl)isoquinolin-7-ol]: in the assay on SMN protein (setting [1]), the “SMN Activity (fold activation over DMSO control)” value came to 2.6 fold. In addition, the EC50 in the assay on SMN protein (setting [2]) came to 6 nM; in the assay on SMN protein (comparison of unsubstituted, ortho-hydroxy and ortho-alkoxy pyridazines, as in Biological Example 1, read-out: SMN ELISA EC50), 6 nM. The compound further showed a Fold activation in the assay on SMN protein (comparison of unsubstituted, ortho-hydroxy and ortho-alkoxy pyridazines, as in Biological Example 1) of 2.6.
In the case of `CCOc1nccc2cc(O)c(-c3ccc(N(C)C4CC(C)(C)NC(C)(C)C4)nn3)cc12` [Example 35-3, 1-ethoxy-7-(6-(methyl(2,2,6,6-tetramethylpiperidin-4-yl)amino)pyridazin-3-yl)isoquinolin-6-ol], the “SMN Activity (fold activation over DMSO control)” value with SMN protein (setting [1]) worked out at 2.26 fold. For the same compound, the concentration giving a half-maximal response (EC50) in the assay on SMN protein (setting [2]) turned out to be 13 nM.
On to `CCCc1cc2cc(O)c(-c3ccc(OC4CC(C)(C)NC(C)(C)C4)nn3)cc2cn1` [Example 36-5, 3-propyl-7-(6-((2,2,6,6-tetramethylpiperidin-4-yl)oxy)-pyridazin-3-yl)isoquinolin-6-ol], for which, in the assay on SMN2 Full reporter, the EC50 worked out at 580 nM.
Regarding `CC1(C)CC(Oc2ccc(-c3cc4c(O)nccc4cc3O)nn2)CC(C)(C)N1` [Example 35-4, 7-(6-((2,2,6,6-tetramethylpiperidin-4-yl)oxy)pyridazin-3-yl)isoquinoline-1,6-diol], the “SMN Activity (fold activation over DMSO control)” value with SMN protein (setting [1]) was 3.26 fold. Further, the EC50 in the assay with SMN protein (setting [2]) is 96 nM.
For `CC(C)c1cnc2cc(O)c(-c3ccc(N(C)C4CC(C)(C)NC(C)(C)C4)nn3)cc2c1` [Example 8-2, 3-isopropyl-6-(6-(methyl(2,2,6,6-tetramethylpiperidin-4-yl)amino)pyridazin-3-yl)quinolin-7-ol] the same measures were 2.50 fold and 190 nM.
As for `Cc1cc2cc(O)c(-c3ccc(N(C)C4CC(C)(C)NC(C)(C)C4)nn3)cc2c(C)n1` [Example 29-3, 1,3-dimethyl-7-(6-(methyl(2,2,6,6-tetramethylpiperidin-4-yl)amino)pyridazin-3-yl)isoquinolin-6-ol], the half-maximal effective concentration (EC50) with SMN2 Full reporter amounted to 40 nM.
Consider `CN(c1ccc(-c2cc3c(=O)n(C)ccc3cc2O)nn1)C1CC(C)(C)NC(C)(C)C1` [Example 35-1, 6-hydroxy-2-methyl-7-(6-(methyl(2,2,6,6-tetramethylpiperidin-4-yl)amino)pyridazin-3-yl)isoquinolin-1(2H)-one], for which the “SMN Activity (fold activation over DMSO control)” value in the assay on SMN protein (setting [1]) is recorded as 2.43 fold. Besides, in the assay on SMN protein (setting [2]), the half-maximal effective concentration (EC50) came out at 3 nM.
For `CN(c1ccc(-c2cc3c(C(N)=O)nccc3cc2O)nn1)C1CC(C)(C)NC(C)(C)C1` [Example 26-4, 6-hydroxy-7-(6-(methyl(2,2,6,6-tetramethylpiperidin-4-yl)amino)pyridazin-3-yl)isoquinoline-1-carboxamide] the same measures were 2.57 fold and 7 nM.
As to `Cc1cc2cc(O)c(-c3ccc(N(C)C4CC(C)(C)NC(C)(C)C4)nn3)cc2cn1` [Example 36-2, 3-methyl-7-(6-(methyl(2,2,6,6-tetramethylpiperidin-4-yl)amino)-pyridazin-3-yl)isoquinolin-6-ol], the “SMN Activity (fold activation over DMSO control)” value in the assay on SMN protein (setting [1]) is 2.64 fold. Further, the EC50 in the assay with SMN protein (setting [2]) turned out to be 9 nM.
For `CN(c1ccc(-c2c(O)ccc3cccnc23)nn1)C1CC(C)(C)NC(C)(C)C1` [Example 5-1, 8-(6-(methyl(2,2,6,6-tetramethylpiperidin-4-yl)amino)pyridazin-3-yl)quinolin-7-ol] the same measures were 2.6 fold and 300 nM.
